{"source": "paper PMC12766724", "about": "“Synthesis, Anthelmintic Activity, and Mechanism of Action of 5‑Aryl‑1H‑indoles” (Journal of Agricultural and Food Chemistry, 2025)", "key": {"Meloidogyne incognita": {"system": "Meloidogyne incognita", "parameters": "method as in not printed (reference number lost in b5)", "settings": "ref not printed (reference number lost in b5); cited from earlier work"}, "C. elegans N2 wild-type": {"system": "C. elegans N2 wild-type", "experiment": "Chitinase assay (reproductive capacity)", "format": "in vivo, Caenorhabditis elegans", "settings": "Caenorhabditis elegans", "experimental": "The effect of compounds on C. elegans was evaluated using the Chitinase assay as we described previously.\nAfter exposing L1 larvae to the compounds for 4 days, we observed the populations under a microscope and measured the Chitinase activity. The larvae produce the enzyme while hatching, and its activity is indicative of the reproductive capacity of the worms. Populations that fail to reproduce due to acute or reproductive toxicity or developmental abnormalities are detected."}, "[1]": {"system": "age unsynchronized Ditylenchus destructor", "experiment": "Motility on WMicrotracker ONE", "format": "in vivo", "experimental": "Populations of D. destructor, kindly provided by Central Institute for Supervising and Testing in Agriculture, the Ministry of Agriculture of the Czech Republic, were maintained according to the protocol previously described here.\n(§1) The effect of compounds on motility of H. contortus, D. destructor, and H. schachtii was evaluated using the WMicrotracker ONE platform according to previously published protocols. ,\n(§2) The instrument evaluates the activity of small animals by counting how many times infrared light microbeams passing through the wells of a microtiter plate are interrupted. In age-unsynchronized populations of D. destructor, we observed reduced motility of worm populations treated with the halogenated derivatives i-19, i-20, and i-21 (Figures A, S2.1A, S2.2A and Table S2.1). […] The decreases in mean activity counts after 72 h of treatment at 100 μM were 85% and 97%, respectively."}, "[2]": {"system": "Heterodera schachtii second-stage juveniles (J2)", "experiment": "Motility on WMicrotracker ONE", "format": "in vivo", "experimental": "H. schachtii was maintained on mustard (Sinapsis alba cv. Albatros) roots grown in vitro on modified KNOP medium according to the previously published protocols. ,\nas §1, §2"}, "[3]": {"system": "Arabidopsis thaliana Col-0", "experiment": "Germination rate and phytotoxicity", "format": "in vivo", "settings": "for average fraction of germinated seeds: 5 DPS; for main root length / plant weight: 10 DPS", "experimental": "Wild-type A. thaliana (Col-0 ecotype) seeds were sterilized with 70% EtOH with 0.1% Tween-20 solution (2 × 1 mL) for 10 min, rinsed with 96% EtOH (1 × 1 mL) for 10 min, and kept in the fridge (4 °C in the dark). Seeds were sown on a sterile 1/2 MS medium supplemented with 0.3% DMSO as a mock and test compounds at 5, 10, 50, and 100 μM concentrations in 0.3% DMSO. Plates were kept in long-day light conditions (22 °C/20 °C, 16 h light/8 h dark, 100 μmol m^–2 s^–1). After 5 days, the germination rate was evaluated. After an additional 5 days, primary root growth was measured with ImageJ software (https://imagej.nih.gov/ij/), and seedlings were weighted."}, "Skin fibroblasts (BJ)": {"system": "Skin fibroblasts (BJ)", "experiment": "Resazurin assay, 3-day treatment", "format": "cell-based, human", "settings": "BJ", "experimental": "Skin fibroblasts (BJ) were obtained from the American Type Culture Collection (ATCC, Manassas, VA), while human keratinocytes (HaCaT) were sourced from the German Cancer Research Center in Heidelberg, Germany. Cells were cultured in a standard DMEM medium from Sigma-Aldrich, supplemented with 10% fetal bovine serum, 2 mM glutamine, 100 U/mL penicillin, and 100 μg/mL streptomycin. Cultures were maintained under standard conditions (37 °C, 5% CO2, humidified atmosphere) and subcultured two to three times per week. We assessed the effect of 3-day compound treatments on cell viability using a resazurin reduction assay measuring mitochondrial activity. Approximately 5,000 cells in 80 μL of culture medium were seeded into the wells of a 96-well plate. Twenty-four hours later, 20 μL of 5-fold concentrated test compound solutions was added and tested across three concentrations prepared through 2-fold serial dilutions. The highest final concentration was 40 μM. After 72 h, we added an 11-fold concentrated resazurin solution to the wells, achieving a final concentration of 0.0125 μM. Fluorescence (ex = 570 nm, em = 610 nm) was measured after 3 h of incubation. […]"}, "[4]": {"system": "human keratinocytes (HaCaT)", "experiment": "Resazurin assay, 3-day treatment", "format": "cell-based", "experimental": "Skin fibroblasts (BJ) were obtained from the American Type Culture Collection (ATCC, Manassas, VA), while human keratinocytes (HaCaT) were sourced from the German Cancer Research Center in Heidelberg, Germany. Cells were cultured in a standard DMEM medium from Sigma-Aldrich, supplemented with 10% fetal bovine serum, 2 mM glutamine, 100 U/mL penicillin, and 100 μg/mL streptomycin. Cultures were maintained under standard conditions (37 °C, 5% CO2, humidified atmosphere) and subcultured two to three times per week. We assessed the effect of 3-day compound treatments on cell viability using a resazurin reduction assay measuring mitochondrial activity. Approximately 5,000 cells in 80 μL of culture medium were seeded into the wells of a 96-well plate. Twenty-four hours later, 20 μL of 5-fold concentrated test compound solutions was added and tested across three concentrations prepared through 2-fold serial dilutions. The highest final concentration was 40 μM. After 72 h, we added an 11-fold concentrated resazurin solution to the wells, achieving a final concentration of 0.0125 μM. Fluorescence (ex = 570 nm, em = 610 nm) was measured after 3 h of incubation.\nThe disubstituted derivatives i-25 and i-27 were the most toxic in the set, causing around a 50% decrease in viability of HaCaT cells at 40 μM."}, "[5]": {"experiment": "Visual inspection of DMSO stock solutions", "format": "physicochemical", "settings": "50 mM in DMSO, stored at −20 °C", "experimental": "For bioassays, all compounds were dissolved in dimethyl sulfoxide (DMSO) to prepare 50 mM stock solutions. Stock solutions were stored at −20 °C and diluted in water or the appropriate media for each bioassay to achieve the final concentrations indicated below. Solubility was evaluated by visual inspection of stock solutions (assessing clarity or cloudiness) and by microscopic examination of media to detect potential crystal formation. The final DMSO concentrations in the bioassays were kept at levels that had no detectable impact on test organisms, as determined by comparison with water-treated controls (0.1% for cell cultures, 0.2% for nematodes, and 0.3% for Arabidopsis thaliana Col-0)."}, "[6]": {"settings": "10 µM group, initial (prior to the treatment)"}, "[7]": {"settings": "50 µM group, initial (prior to the treatment)"}, "[8]": {"settings": "100 µM group, initial (prior to the treatment)"}}}
{"smiles": "O=C(O)Cc1c[nH]c2ccccc12", "note": "[Indole-3-acetic acid]", "values": [{"measurement": "LC50", "setting": "Meloidogyne incognita", "value": 117, "unit": "µg/mL"}]}
{"smiles": "CC(C)c1ccc(-c2ccc3[nH]ccc3c2)cc1", "note": "[i-17]", "values": [{"measurement": "IC50", "setting": "C. elegans N2 wild-type", "value": "7.6 ± 2.3", "unit": "µM"}, {"measurement": "average activity counts", "setting": "[1]; [6]", "value": 228}, {"measurement": "average activity counts", "setting": "[1]; 10 µM, 48 h", "value": 211}, {"measurement": "average activity counts", "setting": "[1]; 10 µM, 72 h", "value": 212}, {"measurement": "average activity counts", "setting": "[1]; [7]", "value": 228}, {"measurement": "average activity counts", "setting": "[1]; 50 µM, 48 h", "value": 223}, {"measurement": "average activity counts", "setting": "[1]; 50 µM, 72 h", "value": 224}, {"measurement": "average activity counts", "setting": "[1]; [8]", "value": 245}, {"measurement": "average activity counts", "setting": "[1]; 100 µM, 48 h", "value": 206}, {"measurement": "average activity counts", "setting": "[1]; 100 µM, 72 h", "value": 212}, {"measurement": "average activity counts", "setting": "[2]; [6]", "value": 178}, {"measurement": "average activity counts", "setting": "[2]; 10 µM, 48 h", "value": 160}, {"measurement": "average activity counts", "setting": "[2]; 10 µM, 72 h", "value": 139}, {"measurement": "average activity counts", "setting": "[2]; [7]", "value": 181}, {"measurement": "average activity counts", "setting": "[2]; 50 µM, 48 h", "value": 158}, {"measurement": "average activity counts", "setting": "[2]; 50 µM, 72 h", "value": 158}, {"measurement": "average activity counts", "setting": "[2]; [8]", "value": 197}, {"measurement": "average activity counts", "setting": "[2]; 100 µM, 48 h", "value": 158}, {"measurement": "average activity counts", "setting": "[2]; 100 µM, 72 h", "value": 122}, {"measurement": "average fraction of germinated seeds", "setting": "[3]; 5 µM", "value": 0.95}, {"measurement": "main root length", "setting": "[3]; 5 µM", "value": 38.83, "unit": "mm"}, {"measurement": "plant weight", "setting": "[3]; 5 µM", "value": 35.01, "unit": "mg"}, {"measurement": "average fraction of germinated seeds", "setting": "[3]; 10 µM", "value": 0.98}, {"measurement": "main root length", "setting": "[3]; 10 µM", "value": 37.53, "unit": "mm"}, {"measurement": "plant weight", "setting": "[3]; 10 µM", "value": 28.28, "unit": "mg"}, {"measurement": "average fraction of germinated seeds", "setting": "[3]; 50 µM", "value": 0.89}, {"measurement": "main root length", "setting": "[3]; 50 µM", "value": 31.19, "unit": "mm"}, {"measurement": "plant weight", "setting": "[3]; 50 µM", "value": 26.18, "unit": "mg"}, {"measurement": "Average viability (signal intensity relative to control)", "setting": "Skin fibroblasts (BJ); 10 µM", "value": "0.9 ± 0.01"}, {"measurement": "Average viability (signal intensity relative to control)", "setting": "Skin fibroblasts (BJ); 20 µM", "value": "0.92 ± 0.05"}, {"measurement": "Average viability (signal intensity relative to control)", "setting": "Skin fibroblasts (BJ); 40 µM", "value": "0.82 ± 0.07"}, {"measurement": "Average viability (signal intensity relative to control)", "setting": "[4]; 10 µM", "value": "0.98 ± 0.01"}, {"measurement": "Average viability (signal intensity relative to control)", "setting": "[4]; 20 µM", "value": "0.99 ± 0.01"}, {"measurement": "Average viability (signal intensity relative to control)", "setting": "[4]; 40 µM", "value": "0.87 ± 0.04"}, {"measurement": "stability of stock solutions", "setting": "[5]", "value": "precipitation of stock solutions after a single freeze–thaw cycle"}]}
